From EP0189755A1, “Pharmaceutical composition” (F. HOFFMANN-LA ROCHE AG, priority 1985, dated 1986) come the findings set out here.

Each structure is given as a SMILES string.

One data set relates to P388 leukemia cells. The experiment in a line: Antitumor effects against intraperitoneally implanted P388 leukemia in mice (increase in life span, survival, body weight). The following applies: for dose ILS30: dose of 5'-DFUR or 5-FU giving ILS30; for dose ILS30 / dose ILSmax: GMP 100 mg/kg/day in the combinations, unit not given in Table 4; for dose ILSmax: dose of 5'-DFUR or 5-FU giving ILSmax. As to the method: BDF1 male mice weighing 21 to 23 g were used as experimental animals. P388 leukemia cells were implanted intraperitoneally into the mice. Seven days after the implantation, ascites were collected and diluted with saline to prepare the suspension containing 10^6 P388 leukemia cells in 0.05 ml. The mice were intraperitoneally implanted on day 0 with 10^6 P388 cells. Each group contained 6 mice. 5'-DFUR and GMP were dissolved in saline, alone or combined with each other. The test compounds were administered intraperitoneally from day 1 to day 5. The antitumor effects were evaluated by the increase in life span over control (ILS) calculated by the following formula: [formula] T: Mean survival time (days) in the test drug groups C: Mean survival time (days) in the control group administered intraperitoneally with saline alone
The safety of the drug was evaluated by the therapeutic ratio; the dose ILSmax / the dose ILS30.
In a manner analogous to that described in (1) above except that 5'-DFCR was used instead of 5'-DFUR, the antitumor effects thereof was tested as a referential example.

A short description of the next data set: Acute toxicity. The data set is classed as in vivo, male ICR mice. As to the method:
Groups of 5 weeks old male ICR mice were treated intraperitoneally with 5'-DFUR and GMP at the dosage given in the- following Table 6. Each mice group contained 5 mice. Two weeks after, the number of died mice were counted.

Where [1] appears, read: 5'-DFCR 28 mg/kg/day, without GMP.
Setting [2] is: 5'-DFCR 55 mg/kg/day, without GMP.
The mark [3] stands for this setting: 5'-DFCR 110 mg/kg/day, without GMP.
Setting [4] is: 5'-DFCR 220 mg/kg/day, without GMP.

`C[C@H]1O[C@@H](n2cc(F)c(N)nc2=O)[C@H](O)[C@@H]1O` [5'-DFCR]: the “Survival days (mean±SD)” value in the data set on P388 leukemia cells (setting [1]) is 10.7 ± 1.5 days; with P388 leukemia cells (setting [2]), 10.0 ± 1.7 days; with P388 leukemia cells (setting [3]), 10.3 ± 0.5 days; with P388 leukemia cells (setting [4]), 12.0 ± 1.7 days. Further, the T/C (as a rule, the result in the treated group divided by that in the control group, in per cent) in the data set on P388 leukemia cells (setting [1]) was 111%; in the data set on P388 leukemia cells (setting [2]) it was 104%; in the data set on P388 leukemia cells (setting [3]), 107%; in the data set with P388 leukemia cells (setting [4]), 125%.
In the case of `C[C@H]1O[C@@H](n2cc(F)c(=O)[nH]c2=O)[C@H](O)[C@@H]1O` [5'-DFUR, 5'-deoxy-5-fluorouri-dine], in the data set with P388 leukemia cells (5'-DFUR 250 mg/kg/day), the “Survival days (mean±SD)” value came out at 13.3 ± 0.8 days. The compound further came in with a T/C with P388 leukemia cells (5'-DFUR 250 mg/kg/day) of 139%. Also, the ILS with P388 leukemia cells (5'-DFUR alone 2 mg/kg/day i.p., day 1 to day 5) was 0%; in the data set on P388 leukemia cells (5'-DFUR alone 4 mg/kg/day i.p., day 1 to day 5) it was 1%; with P388 leukemia cells (5'-DFUR alone 8 mg/kg/day i.p., day 1 to day 5), 8%; in the data set with P388 leukemia cells (5'-DFUR alone 16 mg/kg/day i.p., day 1 to day 5), 15%; with P388 leukemia cells (5'-DFUR alone 32 mg/kg/day i.p., day 1 to day 5) it was 21%; with P388 leukemia cells (5'-DFUR alone 63 mg/kg/day i.p., day 1 to day 5), 21%. Besides, the ILS stood at 31% with P388 leukemia cells (5'-DFUR alone 125 mg/kg/day i.p., day 1 to day 5); 48% in the data set with P388 leukemia cells (5'-DFUR alone 250 mg/kg/day i.p., day 1 to day 5); 24% in the data set with P388 leukemia cells (5'-DFUR alone 500 mg/kg/day i.p., day 1 to day 5). The “dose ILS30” value with P388 leukemia cells came out at 125. The “dose ILSmax” value in the data set with P388 leukemia cells was found to be 250. Also, the ILSmax with P388 leukemia cells (dose series of 5'-DFUR i.p., GMP at 100 mg/kg/day in the combination group) was 48%. In addition, the “number of died mice/number of tested mice” value in “Acute toxicity” (mouse, in vivo) is reported as 0/5.
Take `O=c1[nH]cc(F)c(=O)[nH]1` [5-FU, 5-fluorouracil]: in the data set on P388 leukemia cells, the “dose ILS30” value stood at 0.75 and the “dose ILSmax” value stood at 20.
For `Nc1ncnc2c1ncn2[C@@H]1O[C@H](COP(=O)(O)O)[C@@H](O)[C@H]1O` [AMP, adenosine-5'-monophosphate], in the data set with P388 leukemia cells (nucleotide alone 100 mg/kg/day), the “Survival days (mean±SD)” value was found to be 9.5 ± 1.9 days and the T/C came out at 99%.
With `Nc1nc2c(ncn2[C@@H]2O[C@H](COP(=O)(O)O)[C@@H](O)[C@H]2O)c(=O)[nH]1` [GMP, guanosine-5'-monophosphate], the ILS is -3% in the data set with P388 leukemia cells (GMP alone 100 mg/kg/day i.p. (5'-DFUR 0)), 5% with P388 leukemia cells (GMP alone 300 mg/kg/day i.p. (5'-DFUR 0)), 8% in the data set with P388 leukemia cells (GMP alone 500 mg/kg/day i.p. (5'-DFUR 0)) and 1% in the data set on P388 leukemia cells (GMP alone 1000 mg/kg/day i.p. (5'-DFUR 0)). The “influence on ILS” value in the data set with P388 leukemia cells (GMP alone (Table 3)) is “no influence observed”. Further, the “Survival days (mean±SD)” value in the data set with P388 leukemia cells (nucleotide alone 100 mg/kg/day) stood at 8.8 ± 0.8 days. The compound also came in with a T/C in the data set with P388 leukemia cells (nucleotide alone 100 mg/kg/day) of 92%. Besides, the “number of died mice/number of tested mice” value is on record as 0/5 in “Acute toxicity” (GMP 2000 mg/kg, 5'-DFUR 0, intraperitoneally, counted two weeks after) and 1/5 in the data set “Acute toxicity” (GMP 4000 mg/kg, 5'-DFUR 0, intraperitoneally, counted two weeks after).
